≈ marks a conversion by molar mass, not a printed value. Like-named read-outs stand apart in the source and are kept apart here.
What was measured:
[1] = In vivo pharmacokinetic and oral bioavailability in mouse; design: species or system male Swiss mice; settings: for Vdz: i.v.; for half-life: read-out: Half life (t1/2) (converted); for clearance: read-out: Plasma clearance Cl (converted)
Protocol: The in vivo pharmacokinetics and oral bioavailability of the compound of the examples were/are investigated in male Swiss mice (fed) following single intravenous (i.v.) bolus and oral (p.o.) administration. For the i.v. and p.o. solution formulations, the compound was/is dissolved in a 20% HP-β-CD solution. The pH of the formulations was/is around pH 4. All i.v. formulations were isotonic.

S. aureus = assay: Antibacterial susceptibility testing, IC90 determination with 10% human serum (STA + 10% HS); assay type: cell-based, Staphylococcus aureus; settings: human serum at final concentration of 10%; for IC90: Staphylococcus aureus, read-out: STA + 10% HS (361.169) IC90
Summary of the method: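 Broth microdilution in Mueller-Hinton broth with 10% human serum, 5×10^5 CFU/ml S. aureus, two-fold compound dilutions (typically 63 to 0.49 μM), 1.25% DMSO, 16-20 h at 35° C. Growth read fluorometrically with resazurin (ex 540/em 590 nm); IC90 in μg/ml is the 90% growth-inhibitory concentration.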

[2] = tested on: S. aureus strain ATCC 29213; assay: In vivo efficacy, peritonitis model of S. aureus infection; settings: female Swiss albino mice, IP infection, inoculum 8.7 log10, IV, QD, 20% CD + 2H2T, 3 days post-infection
Excerpt: The concept of studying the in vivo effect of an antibacterial compound by treating intraperitoneally infected mice was introduced in 1911 for optochin against pneumococci (Morgenroth and Levy, 1911). The popularity of the model comes from the ease of its use with short-duration experiments, reproducible infections and simple end-points.
Methicillin-sensitive S. aureus strain ATCC 29213 was used to infect female Swiss albino mice. A Brain Heart Infusion (BHI) broth bacterial culture was inoculated the day before infection, incubated at 37° C. overnight and diluted in fresh BHI broth to the desired concentration. Intraperitoneal (i.p.) injection of ˜5×10^9 colony forming units (CFU) was performed in either of the lateral lower quadrants of the abdomen. After inoculation, mice were kept in their cages under daily observation for development of signs of infection or death. For the treatment of mice, the p.o. route was used and each mouse was treated individually by gavage. Example of Cpd No. 48 was formulated as a 20% HP-β-cyclodextrin and example of Cpd No. 38 was formulated as a water/Tween-20 suspension. The parameter used for monitoring the course of infection and the effect of treatment was death or survival of the animals over 3 days post-infection. As death could also be due to toxic side effects, a non-infected control group of 3 mice, treated with the highest dose of the compound tested, was included.

[3] = target: T1, S. aureus ATCC 29213 FabI (Staphylococcus aureus, UniProt Q6GI75); assay: Staphylococcus aureus FabI enzyme inhibition assay; assay type: biochemical; settings: read-out: FabI (300.235) IC50 (converted)
T1 sequence (Q6GI75 1-256): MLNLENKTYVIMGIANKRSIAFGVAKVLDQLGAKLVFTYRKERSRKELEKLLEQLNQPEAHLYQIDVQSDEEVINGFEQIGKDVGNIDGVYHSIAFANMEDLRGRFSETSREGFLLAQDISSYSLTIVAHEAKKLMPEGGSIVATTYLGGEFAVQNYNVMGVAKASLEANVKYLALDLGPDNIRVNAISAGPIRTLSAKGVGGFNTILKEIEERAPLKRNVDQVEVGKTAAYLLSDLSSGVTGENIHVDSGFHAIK
Summary of the method: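 S. aureus ATCC 29213 FabI (50 μg/ml) with 250 μM crotonoyl-CoA and 625 μM NADH in 100 mM NaADA pH 6.5, inhibitor 50–0.39 μM, 30 min at room temperature. Stopped by Tris pH 9.0 shift; NADH at 340 nm versus no-compound and no-enzyme controls; IC50 in μg/ml.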

[4] = Cytotoxicity MTT assay (HELAM); assay type: cell-based, Human; settings: human, HelaM cells, read-out: HELAM (222.125) CC50
Summary of the method: (§1)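 HelaM cells exposed 72 h at 37° C to serial dilutions, typically 25 to 0.8 μM, in 0.5% DMSO. MTT formazan dissolved in 2-propanol, absorbance at 540 nm minus 690 nm; CC50 is concentration halving viability.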

[5] = tested on: Staphylococcus aureus ATCC 29213; assay: Antibacterial susceptibility testing, IC90 determination (STA); assay type: cell-based; settings: resazurin; for IC90: Staphylococcus aureus, ATCC29213, Staphylococcus aureus ATCC 29213, broth microdilution, read-out: STA (361.159) IC90; for STA (361.159) IC90: Staphylococcus aureus ATCC 29213, broth microdilution
Summary of the method: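 S. aureus ATCC 29213 tested by broth microdilution in Mueller-Hinton broth, 5×10^5 CFU/ml, two-fold compound dilutions typically 63 to 0.49 μM, 1.25% DMSO, 16-20 h at 35° C. Growth read fluorometrically with resazurin (ex 540/em 590 nm); IC90 in μg/ml is 90% growth-inhibitory concentration.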

[6] = Thermodynamic solubility (pH solubility profiling); assay type: physicochemical; settings: thermodynamic from solid
Protocol: The pH solubility profiling was carried out at ambient temperature for a period of 4 days. A saturation solubility study was carried out in order to determine maximum solubility in a particular buffer solution. The compound was added to respective buffer solution until saturation point is reached. This was followed by shaking the flask for 4 days at ambient temperature. After 4 days, the solutions were filtered and injected on UPLC and the concentration was determined using a generic HPLC method.

Human HelaM cells = assay: Cytotoxicity MTT assay (HELAM); assay type: cell-based; settings: 72 hours
Summary of the method: as §1

[7] = 2.5 mg/kg, 20% HP-β-cyclodextrin
[8] = male, Swiss, plasma, iv, 2.5 mg/kg, 20% HP-β-cyclodextrin
[9] = male, Swiss, plasma, po, 10 mg/kg, 20% HP-β-cyclodextrin
[10] = aqueous buffer, Buffer pH 4, ambient temperature
[11] = aqueous buffer, Buffer pH 7.4, ambient temperature
[12] = aqueous with cosolvent or surfactant or cyclodextrin, 10% HP-β-CD buffer pH 4, ambient temperature
[13] = aqueous with cosolvent or surfactant or cyclodextrin, 10% HP-β-CD buffer pH 7.4, ambient temperature
[14] = aqueous with cosolvent or surfactant or cyclodextrin, 20% HP-β-CD buffer pH 4, ambient temperature
[15] = aqueous with cosolvent or surfactant or cyclodextrin, 20% HP-β-CD buffer pH 7.4, ambient temperature
[16] = pH 2, aqueous with cosolvent or surfactant or cyclodextrin, 20% HP-β-CD 0.01N HCl, ambient temperature
[17] = pH 2, simulated gastric fluid, 0.01N HCl, ambient temperature
[18] = male, Swiss, plasma, po, 5 mg/kg, 20% HP-β-cyclodextrin

## O=C1CNCc2cc(/C=C/C(=O)N3CC4C=C(c5ccccc5)CC4C3)cnc2N1 (stereo not drawn) [Cpd. No. 38]
[1]; [7]
  Vdz: 3.1 L/kg
[1]; [8]
  AUC(0-inf): 2000 ng·h/mL
  half-life: 1.7 h
  clearance: 21.7 mL/min/kg
[1]; [9]
  AUC(0-inf): 2860 ng·h/mL
  Cmax: 665 ng/mL
  Tmax: 1.7 h
  half-life: 2.2 h
[1]; male, Swiss, plasma, po, p.o. 10 mg/kg vs i.v. 2.5 mg/kg
  bioavailability: 36%
S. aureus
  IC90: 0.24 µg/mL
[2]; 2.5 mpk
  % Survival: 75%
[2]; 5 mpk
  % Survival: 100%
[3]
  IC50: 1.05 µM
[4]
  CC50 at 72 h: > 10.1 µg/mL
[5]
  IC90: < 0.19 µg/mL

## O=C1Nc2ncc(/C=C/C(=O)N3CC4C=C(c5nccs5)CC4C3)cc2CN2CCOCC12 (stereo not drawn) [Cpd. No. 74]
S. aureus
  IC90: < 0.23 µg/mL
[3]
  IC50: 0.992 µM
[4]
  CC50 at 72 h: > 11.2 µg/mL
other
  melting point: > 260 °C
[5]
  IC90: < 0.23 µg/mL
[6]; [10]
  solubility thermodynamic at 4 days: 40 µg/mL (≈ 86.3 µM)
[6]; [11]
  solubility thermodynamic at 4 days: 30 µg/mL (≈ 64.7 µM)
[6]; [12]
  solubility thermodynamic at 4 days: > 1280 µg/mL
[6]; [13]
  solubility thermodynamic at 4 days: > 1210 µg/mL
[6]; [14]
  solubility thermodynamic at 4 days: > 2360 µg/mL
[6]; [15]
  solubility thermodynamic at 4 days: > 1330 µg/mL
[6]; [16]
  solubility thermodynamic at 4 days: > 2360 µg/mL
[6]; [17]
  solubility thermodynamic at 4 days: 670 µg/mL (≈ 1450 µM)

## O=C(Nc1ccc(/C=C/C(=O)N2CC3C=C(c4ccncc4)CC3C2)cn1)c1cccnc1 (stereo not drawn) [compound 9]
S. aureus
  IC90: 0.39 µg/mL
[4]
  CC50 at 72 h: > 11 µg/mL
other
  melting point: 196 °C
[5]
  IC90: 0.34 µg/mL (≈ 0.777 µM)
[6]; [10]
  solubility thermodynamic at 4 days: 120 µg/mL (≈ 274 µM)
[6]; [11]
  solubility thermodynamic at 4 days: < 10 µg/mL
[6]; [12]
  solubility thermodynamic at 4 days: 830 µg/mL (≈ 1900 µM)
[6]; [13]
  solubility thermodynamic at 4 days: > 1120 µg/mL
[6]; [14]
  solubility thermodynamic at 4 days: > 5230 µg/mL
[6]; [15]
  solubility thermodynamic at 4 days: > 4940 µg/mL
[6]; [16]
  solubility thermodynamic at 4 days: > 4930 µg/mL
[6]; [17]
  solubility thermodynamic at 4 days: > 1250 µg/mL

## O=C1COc2cc(/C=C/C(=O)N3CC4C=C(c5ccccc5)CC4C3)cnc2N1 (stereo not drawn) [compound 37]
[1]; [7]
  Vdz: 1.5 L/kg
[1]; [8]
  AUC(0-inf): 7890 ng·h/mL
  C0: 3930 ng/mL
  half-life: 3.33 h
  clearance: 5.33 mL/min/kg
[1]; [18]
  AUC(0-inf): 15600 ng·h/mL
  Cmax: 2330 ng/mL
  Tmax: 1 h
  half-life: 3.5 h
[1]; male, Swiss, plasma, po, p.o. 5 mg/kg vs i.v. 2.5 mg/kg
  bioavailability: 98%
S. aureus
  IC90: 0.25 µg/mL
[3]
  IC50: ~1.16 µM
[4]
  CC50 at 72 h: > 9.73 µg/mL
other
  melting point: > 260 °C
[5]
  IC90: < 0.19 µg/mL

## O=C1CNCc2cc(/C=C/C(=O)N3CC4C=C(c5ccccc5)CC4C3)cnc2N1 (stereo not drawn) [compound 47]
S. aureus
  STA + 10% HS (361.169) IC90: 0.26 µg/mL
[3]
  IC50: 0.874 µM
Human HelaM cells
  HELAM (222.125) CC50: >10.06 µg/mL
[5]
  STA (361.159) IC90: 0.24 µg/mL

## CN1CC(=O)Nc2ncc(/C=C/C(=O)N3C[C@@H]4CN(c5ccccc5)C[C@@H]4C3)cc2C1 [compound 60]
S. aureus
  STA + 10% HS (361.169) IC90: 3.85 µg/mL
[3]
  IC50: 2.18 µM
Human HelaM cells
  HELAM (222.125) CC50: >10.49 µg/mL
other
  melting point: 178 °C
[5]
  STA (361.159) IC90: 5.50 µg/mL

## O=C1Nc2ncc(/C=C/C(=O)N3CC4C=C(c5ccccc5)CC4C3)cc2CN2CCOCC12 (stereo not drawn) [compound 69]
S. aureus
  STA + 10% HS (361.169) IC90: 0.22 µg/mL
[3]
  IC50: 1.03 µM
Human HelaM cells
  HELAM (222.125) CC50: 8.31 µg/mL
[5]
  STA (361.159) IC90: 0.15 µg/mL

## O=C1Nc2ncc(/C=C/C(=O)N3CC4C=C(c5ccccc5)CC4C3)cc2CN2CCNCC12 (stereo not drawn) [compound 79]
S. aureus
  IC90: < 0.22 µg/mL
[3]
  IC50: 1.32 µM
[4]
  CC50 at 72 h: > 11.4 µg/mL
other
  melting point: 191 to 216 °C
[5]
  IC90: 0.36 µg/mL (≈ 0.79 µM)
[6]; [10]
  solubility thermodynamic at 4 days: 150 µg/mL (≈ 329 µM)
[6]; [11]
  solubility thermodynamic at 4 days: 10 µg/mL (≈ 22 µM)
[6]; [12]
  solubility thermodynamic at 4 days: > 5330 µg/mL
[6]; [13]
  solubility thermodynamic at 4 days: > 5110 µg/mL
[6]; [14]
  solubility thermodynamic at 4 days: > 4450 µg/mL
[6]; [15]
  solubility thermodynamic at 4 days: > 4880 µg/mL
[6]; [16]
  solubility thermodynamic at 4 days: > 4490 µg/mL
[6]; [17]
  solubility thermodynamic at 4 days: > 1160 µg/mL

Reference: patent US9315522B2, “Antibacterial compounds” (JANSSEN SCIENCES IRELAND UC, priority 2012, dated 2016)
